# Reference: patent US7132428B2, “Pyrazoloisoquinoline derivative as kinase inhibitors for the treatment of various disorders” (Aventis Pharmaceuticals Inc., priority 2003, dated 2006)
# Columns and labels:
# [1] = test system: human peripheral blood lymphocytes; test: Cytotoxicity by LDH release, IL1β-stimulated human peripheral blood lymphocytes; assay type: cell-based
# Description: (§1) The pyrazoloisoquinoline derivatives according to the invention were tested for inhibitory activity against NIK in various in vitro assay systems. In this connection, human peripheral blood lymphocytes were preincubated for 1 h with different concentrations of the compounds and then stimulated for 24 h with LPS or IL1β. After that, a commercially obtainable ELISA test kit was used to measure the release of TNFα in the culture supernatant, and the IC50 for the given compound was determined. The cytotoxicity was measured by way of LDH release using a commercially obtainable test kit and the LD50 for the given compound was determined.
# [2] = test system: human peripheral blood lymphocytes; test: Cytotoxicity by LDH release, LPS-stimulated human peripheral blood lymphocytes; assay type: cell-based
# Description: as §1
structure (smiles),measurement,setting,value
"c1ccc(-c2nc3c(-c4ccccc4)n[nH]c3c3ccccc23)cc1 [Example 1, 3,5-Diphenyl-1H-pyrazolo[4,3-c]isoquinoline]",Cytotoxicity LD50,[1],>100 µM
same,Cytotoxicity LD50,[2],>100 µM
"COc1cccc(-c2nc3c(C)n[nH]c3c3ccccc23)c1 [Example 2, 5-(3-Methoxyphenyl)-3-methyl-1H-pyrazolo[4,3-c]isoquinoline]",Cytotoxicity LD50,[1],>100 µM
same,Cytotoxicity LD50,[2],>100 µM
"Cc1n[nH]c2c1nc(-c1cccc(O)c1)c1ccccc12 [Example 3, 3-(3-Methyl-1H-pyrazolo[4,3-c]isoquinolin-5-yl)phenol]",Cytotoxicity LD50,[1],>100 µM
same,Cytotoxicity LD50,[2],>100 µM
"CCc1n[nH]c2c1nc(-c1ccccc1)c1ccccc12 [Example 46, 5-phenyl-3-ethyl-1H-pyrazolo[4,3-c]isoquinoline]",melting point,,250 to 251 °C
"CCc1n[nH]c2c1nc(-c1cccnc1)c1ccccc12 [Example 47, 3-Ethyl-5-(pyridin-3-yl)-1H-pyrazolo[4,3-c)isoquinoline]",melting point,,219 to 220 °C
"Cc1n[nH]c2c1nc(-c1ccccc1)c1cc(Br)ccc12 [Example 62, 7-Bromo-3-methyl-5-phenyl-1H-pyrazolo[4,3-c]isoquinoline]",melting point,,299 to 300 °C
"FC(F)(F)c1n[nH]c2c1nc(-c1ccccc1)c1ccccc12 [Example 75, 5-phenyl-3-trifluoromethyl-1H-pyrazolo[4,3-c]isoquinoline]",melting point,,264 to 265 °C
